Among the data in PubChem BioAssay (NCI) are GI50 and TGI values, retold here.

What all share (assay): growth of human tumour cells (NCI), 48 h
For assay [1], the system named is ACHN renal.
For assay [2], the system named is DU-145 prostate.
In assay [3] the test system is HCC-2998 colon.
For assay [4], the system named is HCT-116 colon.
Assay [5] has as its system NCI-H23 lung.
The subject of assay [6] is OVCAR-4 ovarian.
In assay [7] the test system is SF-539 CNS.
Assay [8] has as its system SK-MEL-2 melanoma.
Assay [9] deals with SNB-75 CNS.
Assay [10] concerns T-47D breast.

“And” between values parts separate entries of the source, which are not always exact repeats. Equal values may be shown once.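 A five-concentration, 48-hour dose response in 96-well plates underlies each endpoint, interpolated linearly between surrounding concentrations. At the GI50, growth is halved. The concentration for full growth arrest is given as TGI.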 Bounds are passed on as bounds.

Take `O=c1cccc(C#CC#C/C=C/CO)o1`: the GI50 in [1] was 2.13 µM; in assay [2] it was 3.4 µM; in [3] it was 2.09 µM; in assay [4], 5.71 µM; in assay [5], 1.73 µM; in assay [6], 3.1 µM. Also, the GI50 was 3.19 µM in assay [7], 7.52 µM in assay [8], 17 µM in assay [9] and 2.36 µM in assay [10]. Moreover, the TGI is 4.86 µM in assay [1]; 12.4 µM in assay [2]; 3.52 µM in assay [3]; above 100 µM in [4]; 3.18 µM in assay [5]; above 100 µM in assay [6]. In addition, the TGI in assay [7] is 8.26 µM; in assay [8], above 31.3 µM; in assay [9], 92.9 µM; in assay [10] it was 4.46 µM.

On to `COc1ccc(Cn2c(Br)c3c(c2-c2cc(OC)c(OC)c(OC)c2)CCc2sc(NC(C)=O)nc2-3)cc1`, for which the GI50 was 5.27 µM in assay [1]; 4.44 µM in assay [2]; 3.58 µM in assay [3]; 3.4 µM in assay [4]; 8.6 µM in [5]; 3.49 µM in assay [6]. Besides, the GI50 in assay [7] was 2.41 µM; in assay [8], 3.82 µM; in [9], 1.82 µM; in [10], 4.65 µM. Further, the TGI in assay [1] was 26.9 µM; in [2], above 100 µM; in assay [3], above 100 µM; in [4] it was 14.6 µM; in assay [5], above 100 µM; in [6], above 100 µM. In addition, the TGI in [7] was 6.79 µM; in assay [8] it was above 100 µM; in assay [9], above 100 µM; in assay [10], above 100 µM.

Regarding `CC([O-])C(=O)[O-].NCC1CCC1CN.[Pt+4]` (centres undefined), the GI50 in [1] is 6.19 µM; in assay [2], above 10 µM; in assay [3], above 10 µM; in assay [4], above 10 µM; in assay [5] it was above 10 µM; in [6] it was above 10 µM. In addition, the GI50 in assay [7], in assay [8], in assay [9] and in [10] was above 10 µM throughout. Also, the TGI in assay [1], in assay [2], in assay [3], in assay [4], in assay [5] and in assay [6] was above 10 µM each time. Besides, the TGI in assay [7], in assay [8], in assay [9] and in assay [10] was above 10 µM each time.

Turning to `COc1cc2c3c(c4c5ccccc5[nH]c4c2c(OC)c1OC)C(=O)N(CCN1CCCCC1)C3=O`, the GI50 was 0.4 µM in assay [1]; 1.22 µM in assay [2]; 1.32 µM in [3]; 0.351 µM in [4]; 1.12 µM in assay [5]; 1.26 µM in assay [6]. In addition, the GI50 is 1.38 µM in assay [7], 3.17 µM in assay [8], 2.47 µM in assay [9] and 6.09 µM in assay [10]. Besides, the TGI stood at 1.6 µM in assay [1]; 2.54 µM in [2]; 3.45 µM in [3]; 1.46 µM in assay [4]; 2.68 µM in assay [5]; 3.14 µM in assay [6]. For the same compound, the TGI in assay [7] was 2.72 µM; in assay [8], 11.2 µM; in assay [9], 7.19 µM; in [10], above 25.5 µM.

Consider `CNC1C(OC2C(OC3C(O)C(O)C(O)C(O)C3O)OC(C)C2(O)CO)OC(CO)C(O)C1O` (centres undefined) (tested in a mixture with another compound), for which the TGI in assay [1], in assay [2], in [3], in assay [4], in [5] and in assay [6] was above 100 µM each time. Also, the TGI in [7], in assay [8], in assay [9] and in assay [10] was above 100 µM each time.

Consider `Cc1ccccc1/C=C1\CN(C(=O)OC(C)(C)C)C/C(=C\c2ccccc2C)C1=O`, for which the GI50 in assay [1] is 2.7 µM; in [2], 2.37 µM; in [3], 1.94 µM; in assay [4], 1.9 µM; in assay [5], 2.2 µM; in [6] it was 2.6 µM. For the same compound, the GI50 is 1.94 µM in [7], 10.1 µM in assay [8], 2.71 µM in assay [9] and 3.78 µM in assay [10]. Moreover, the TGI in [1] worked out at 7.15 µM; in assay [2], 5.52 µM; in [3], 3.78 µM; in [4], 4.57 µM; in assay [5], 4.99 µM; in assay [6] it was 14.1 µM. The TGI was 3.64 µM in [7], 26.5 µM in [8], 9.34 µM in assay [9] and above 100 µM in assay [10].

With `Nc1nc2c(c3cnccc13)C(c1cccc(Cl)c1)Cc1cnccc1-2` (centres undefined), the GI50 in [1] was 0.761 µM; in [2], 0.309 µM; in assay [3] it was 1.29 µM; in assay [4] it was 0.448 µM; in assay [5], 0.382 µM; in [6] it was 2.23 µM. Besides, the GI50 was 0.255 µM in [7], 0.374 µM in [8], 0.38 µM in assay [9] and 0.384 µM in [10]. Further, the TGI in assay [1] is 11.9 µM; in assay [2] it was 4.65 µM; in assay [3], 12.8 µM; in assay [4], 11.3 µM; in assay [5], 3.51 µM; in assay [6], 41 µM. Further, the TGI in [7] worked out at 0.752 µM; in assay [8], 5.25 µM; in assay [9] it was 17.8 µM; in [10], 25.2 µM.

As for `Cn1c(=S)sc2nc3ccccc3n2c1=S`, the TGI in assay [1] is 24 µM; in [2], 19 µM; in assay [3] it was 35.2 µM; in [4] it was 17.9 µM; in [5], 30.7 µM; in assay [6], 42.3 µM. Further, the TGI in assay [7] is 27.1 µM; in [8] it was above 100 µM; in [9] it was 48.8 µM; in [10], 39.6 µM.

For the compound `N=c1ccn2c(n1)O[C@@H]1[C@@H](O)[C@H](CO)O[C@@H]12`, the GI50 in assay [1] was 1.45 µM; in [2] it was 2.42 µM; in [3] it was 21.2 µM; in assay [4], 0.519 µM; in [5], 1.09 µM; in assay [6], 10.4 µM. The GI50 in [7] is 63.9 µM; in assay [8], 15.8 µM; in [9], 1.58 µM; in assay [10], 8.96 µM. The TGI in [1], in assay [2], in [3], in assay [4], in assay [5] and in assay [6] was above 100 µM each time. In addition, the TGI was above 100 µM in assay [7], above 100 µM in assay [8], 47.6 µM in [9] and above 100 µM in [10].

For `Cc1ccc(NC(=O)c2nc(S(C)=O)oc2-c2ccc(F)cc2)cc1Nc1nccc(-c2cccnc2)n1` (centres undefined), the GI50 is 1.69 µM in assay [1]; 1.91 µM in [2]; 3.91 µM in assay [3]; 1.88 µM in [4]; 1.83 µM in assay [5]; 3.16 µM in assay [6]. Besides, the GI50 was 1.77 µM in assay [7], 1.78 µM in assay [8], 2.31 µM in assay [9] and 1.73 µM in assay [10]. The TGI in assay [1] turned out to be 3.1 µM; in assay [2], 3.75 µM; in [3], 13 µM; in assay [4], 3.57 µM; in assay [5], 4.49 µM; in assay [6], 9 µM. The TGI was 3.71 µM in [7], 4.03 µM in assay [8], 5.43 µM in assay [9] and 3.68 µM in assay [10].

As for `CSc1nc2c(c(=O)[nH]1)C(c1ccc(Cl)cc1)C1=C(N2)/C(=C/c2ccc(Cl)cc2)CNC1` (centres undefined), the GI50 in [1] was 1.81 µM; in [2] it was 3.36 µM; in [3] it was 1.96 µM; in [4], 1.72 µM; in [5] it was 2.48 µM; in assay [6], 4.76 µM. The GI50 in assay [7] was 1.78 µM; in assay [8], 2.76 µM; in [9] it was 2.69 µM; in assay [10], 3.65 µM. Also, the TGI in assay [1] came out at 3.86 µM; in [2] it was 11.6 µM; in assay [3] it was 3.57 µM; in [4] it was 3.55 µM; in [5], 5.84 µM; in assay [6], 19.2 µM. Moreover, the TGI in [7] came to 3.5 µM; in [8], 9.53 µM; in assay [9], 11.5 µM; in [10], 15.7 µM.

Turning to `O=C(/C=C/c1cccnc1)c1ccccc1O`, the GI50 in [1] is 16.7 µM; in [2] it was 16 µM; in assay [3], 16.2 µM; in assay [4], 16.8 µM; in [5], 16.9 µM; in assay [6], 29.5 µM. Besides, the GI50 in assay [7] is 14.4 µM; in assay [8], 22.8 µM; in assay [9], 16.5 µM; in assay [10], 21 µM. In addition, the TGI is 37.6 µM in assay [1]; 31.6 µM in assay [2]; 30 µM in [3]; 34.9 µM in assay [4]; 36 µM in [5]; above 100 µM in assay [6]. For the same compound, the TGI in [7] was 34.7 µM; in [8] it was 62.2 µM; in assay [9], 59.1 µM; in [10], above 100 µM.

As for `O=C1OC2C(O)C(=O)OC2C1O` (centres undefined), the TGI in assay [1], in assay [2], in assay [3], in assay [4], in [5] and in assay [6] was above 100 µM throughout. In addition, the TGI in assay [7], in assay [8], in assay [9] and in [10] was above 100 µM each time.

On to `NC[C@@](O)(c1ccc(Cl)cc1)c1ccc(-c2cn[nH]c2)cc1`, for which the GI50 is 1.64 µM in assay [1]; 3.27 µM and 2.49 µM in [2]; above 100 µM in assay [3]; 1.44 µM in assay [4]; 1.4 µM in assay [6]; 1.01 µM in [7]. In addition, the GI50 was 1.89 µM in [8]; 0.11 µM and 0.245 µM in assay [9]; 1.42 µM and 1.23 µM in [10]. In addition, the TGI in assay [1] is 4.93 µM; in [2], above 100 µM; in assay [3] it was above 100 µM; in assay [4] it was 3.19 µM; in [5] it was above 100 µM; in assay [6], 2.86 µM. In addition, the TGI in [7] was 2.36 µM; in [8], 4.5 µM; in assay [9] it was 2.41 µM and 3.6 µM; in assay [10], 2.87 µM and 2.83 µM.

Take `COc1cc(OC)cc(-c2cncn2-c2ccc(-c3nc4cc(OC)c(OC)c(OC)c4s3)cc2)c1`: the GI50 was 11.5 µM in assay [1]; 31.1 µM in assay [2]; above 100 µM in assay [3]; 3.76 µM in [4]; 9.56 µM in assay [5]; 6.67 µM in assay [6]. The GI50 in [7] is 22 µM; in assay [8] it was 6.16 µM; in assay [9], 15 µM; in [10] it was 4.74 µM. Further, the TGI in [1], in [2], in assay [3], in assay [4], in [5] and in assay [6] was above 100 µM throughout. In addition, the TGI in assay [7] was above 100 µM; in assay [8], above 100 µM; in assay [9] it was 42.7 µM; in [10] it was above 100 µM.

As to `CC(C)Oc1ccc(C(=O)N[C@H](CNC(=O)CN(C)C)Cc2ccc(-c3cn4cccc([C@H](C)O)c4n3)cc2)cc1Cl`, the GI50 is 6.6 µM in assay [1]; 0.0385 µM in [2]; 0.0695 µM in [3]; 0.0355 µM in [4]; 0.0566 µM in assay [5]; 0.316 µM in [6]. For the same compound, the GI50 in assay [7] is 0.0323 µM; in [8], 0.0434 µM; in [9] it was 0.0222 µM; in assay [10] it was 3.72 µM. Further, the TGI came to 21.8 µM in assay [1]; 13.1 µM in assay [2]; 17.3 µM in assay [3]; 14.2 µM in [4]; 21.5 µM in assay [5]; 18.7 µM in assay [6]. Further, the TGI in [7] stood at 1.19 µM; in assay [8], 11.1 µM; in assay [9], 13.3 µM; in [10], 30.3 µM.
